# Data taken from patent US8906914B2, “Ethylene diamine modulators of fatty acid hydrolase” (priority 2009, dated 2014).
# Structures can show the parent of a compound that is named as a salt.
# How the values were obtained:
# thermal nociception [1] = settings: rat; cited from earlier work
# anxiety = settings: rats; Kathuria 2003; cited from earlier work
# nociception = settings: rat; Kathuria 2003; cited from earlier work
# neuropathic pain = settings: rats; WO 02/087569; cited from earlier work
# [2] = test system: acute thermal nociception; settings: rats; WO 02/087569; cited from earlier work
# spasticity = settings: Baker 2001; cited from earlier work
# FAAH [3] = molecular target: T1, FAAH (Homo sapiens, UniProt O00519); test: Human FAAH assay (Assay Method 1), 3H-anandamide hydrolysis in cell homogenate; format: biochemical; set-up: expressed in transfected cells; alternatively T84 frozen cell pellets (endogenous FAAH)
# T1 sequence (O00519 1-579): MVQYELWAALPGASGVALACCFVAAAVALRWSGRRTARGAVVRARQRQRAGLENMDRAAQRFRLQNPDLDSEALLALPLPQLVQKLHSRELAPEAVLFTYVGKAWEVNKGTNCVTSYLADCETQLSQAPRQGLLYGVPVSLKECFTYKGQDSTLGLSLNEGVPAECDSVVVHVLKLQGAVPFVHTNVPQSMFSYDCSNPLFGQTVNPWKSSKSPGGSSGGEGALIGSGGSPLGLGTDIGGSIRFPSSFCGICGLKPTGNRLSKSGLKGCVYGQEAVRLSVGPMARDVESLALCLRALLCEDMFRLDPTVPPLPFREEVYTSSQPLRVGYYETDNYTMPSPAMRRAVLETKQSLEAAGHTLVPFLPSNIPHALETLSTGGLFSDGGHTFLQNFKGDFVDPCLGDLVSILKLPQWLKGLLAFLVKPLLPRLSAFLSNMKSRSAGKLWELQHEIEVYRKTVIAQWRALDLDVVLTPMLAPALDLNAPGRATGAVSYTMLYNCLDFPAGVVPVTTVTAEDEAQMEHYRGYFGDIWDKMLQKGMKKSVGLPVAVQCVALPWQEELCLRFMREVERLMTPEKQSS
# Outline: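 Homogenate of SK-N-MC cells stably transfected with human FAAH, incubated with compound and 80 nM (final) 3H-anandamide for 1 h at rt. Released 3H-ethanolamine separated from substrate on activated charcoal by centrifugation and counted by scintillation; ">" values denote solubility limit or top concentration tested.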
# Rat FAAH-1 = molecular target: T2, Rat FAAH-1 (Rattus norvegicus, UniProt P97612); test: Rat FAAH-1 assay (Assay Method 2), 3H-anandamide hydrolysis in cell homogenate; format: biochemical
# T2 construct: expressed in transfected cells
# T2 sequence (P97612 1-579): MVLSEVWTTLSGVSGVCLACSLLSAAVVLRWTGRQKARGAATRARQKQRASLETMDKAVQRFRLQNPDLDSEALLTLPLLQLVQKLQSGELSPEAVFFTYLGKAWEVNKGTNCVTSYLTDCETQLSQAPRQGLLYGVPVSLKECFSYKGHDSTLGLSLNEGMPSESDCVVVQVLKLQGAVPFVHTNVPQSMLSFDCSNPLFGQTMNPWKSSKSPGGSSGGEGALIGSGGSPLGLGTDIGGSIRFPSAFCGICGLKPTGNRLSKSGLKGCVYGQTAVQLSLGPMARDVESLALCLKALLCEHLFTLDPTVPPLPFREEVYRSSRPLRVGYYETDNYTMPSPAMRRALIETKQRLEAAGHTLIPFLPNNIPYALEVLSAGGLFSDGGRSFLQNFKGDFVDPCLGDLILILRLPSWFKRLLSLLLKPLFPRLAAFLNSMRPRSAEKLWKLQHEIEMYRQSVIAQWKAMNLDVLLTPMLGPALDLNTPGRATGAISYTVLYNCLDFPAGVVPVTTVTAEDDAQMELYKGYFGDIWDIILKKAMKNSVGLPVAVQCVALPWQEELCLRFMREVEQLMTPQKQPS
# Outline: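 Homogenate of SK-N-MC cells stably transfected with rat FAAH cDNA, incubated with test compound and 80 nM final 3H-anandamide (ethanolamine-labelled) for 1 h at rt. Released 3H-ethanolamine separated from substrate on activated charcoal filters by centrifugation and counted by scintillation.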
# FAAH [4] = molecular target: T1, FAAH; settings: reported; cited from earlier work
# thermal nociception [5] = settings: rats; WO 04/033652; cited from earlier work
Structure (SMILES),IC50 (FAAH [3]) [nM],IC50 (Rat FAAH-1) [nM],also measured
NC(=O)c1cccc(-c2cccc(OC(=O)NC3CCCCC3)c2)c1 [URB-597],–,–,analgesic efficacy/activity in hot plate test (thermal nociception [1]): analgesic efficacy; efficacy in zero plus maze model of anxiety (anxiety): efficacy; analgesic efficacy in formalin test (nociception): analgesic efficacy
Cc1nc(-c2ccccc2)c(-c2ccccc2)n1CCCCCCNC(=O)Oc1ccccc1F [BMS-1],–,–,analgesic effect in Chung spinal nerve ligation model (neuropathic pain): analgesic effect; analgesic effect in Hargraves test [2]: analgesic effect
CCCCCCCCCCCCCCCCS(=O)(=O)F [AM374],–,–,spasticity in CREAE mice (spasticity): significantly reduce spasticity
"N[C@@H](CNc1cc(-c2ccc(OCC(F)(F)F)c(F)c2)ncn1)c1ccccc1 [Example 21, (1R)—N^2-{6-[3-Fluoro-4-(2,2,2-trifluoroethoxy)phenyl]pyrimidin-4-yl}-1-phenylethane-1,2-diamine hydrochloride acid salt]",77,675,–
"N[C@H](CNc1cc(-c2ccc(C(F)(F)F)c(Cl)c2)ncn1)c1ccccc1 [Example 3, (1S)—N^2-{6-[3-Chloro-4-(trifluoromethyl)phenyl]pyrimidin-4-yl}-1-phenylethane-1,2-diamine hydrochloride acid salt]",1300,2400,–
"N[C@@H](CNc1cc(-c2ccc(C(F)(F)F)c(Cl)c2)ncn1)c1ccc(F)c(Cl)c1 [Example 47, (1R)—N^2-1-(3-Chloro-4-fluoro-phenyl)-[6-(3-chloro-4-trifluoromethyl-phenyl)-pyrimidin-4-yl]-ethane-1,2-diamine]",120,115,–
"N[C@@H](CNc1cc(-c2ccc(OC(F)(F)F)cc2)ncn1)c1ccccc1 [Example 6, (1R)-1-Phenyl-N^2-{6-[4-(trifluoromethoxy)phenyl]pyrimidin-4-yl}ethane-1,2-diamine hydrochloride acid salt]",82,880,–
"N[C@@H](CNc1cc(-c2ccc(C(F)(F)F)c(Cl)c2)ncn1)c1ccc(SC(F)(F)F)cc1 [Example 61, (1R)—N^2-[6-(3-Chloro-4-trifluoromethyl-phenyl)-pyrimidin-4-yl]-1-(4-trifluoromethylsulfanyl-phenyl)-ethane-1,2-diamine]",180,130,–
"N[C@@H](CNc1cc(-c2ccc3c(c2)OC(F)(F)O3)ncn1)c1ccccc1 [Example 24, (1R)—N^2-[6-(2,2-Difluoro-1,3-benzodioxol-5-yl)pyrimidin-4-yl]-1-phenylethane-1,2-diamine hydrochloride acid salt]",270,1000,–
"CCOc1ccc(-c2cc(NC[C@H](N)c3ccccc3)ncn2)cc1C(F)(F)F [Example 10, (1R)—N^2-{6-[4-Ethoxy-3-(trifluoromethyl)phenyl]pyrimidin-4-yl}-1-phenylethane-1,2-diamine hydrochloride acid salt]",26,84,–
"N[C@@H](CNc1cc(-c2ccc(OC(F)(F)F)c(Cl)c2)ncn1)c1ccccc1 [Example 7, (1R)—N^2-{6-[3-Chloro-4-(trifluoromethoxy)phenyl]pyrimidin-4-yl}-1-phenylethane-1,2-diamine hydrochloride acid salt]",53,120,–
"N[C@@H](CNc1cc(-c2ccc(C(F)(F)F)c(F)c2)ncn1)c1ccccc1 [Example 4, (1R)—N^2-{6-[3-Fluoro-4-(trifluoromethyl)phenyl]pyrimidin-4-yl}-1-phenylethane-1,2-diamine hydrochloride acid salt]",100,320,–
"N[C@@H](CNc1cc(-c2ccc(C(F)(F)F)c(Cl)c2)ncn1)c1ccc(Cl)cc1 [Example 39, (1R)—N^2-1-(4-Chloro-phenyl)-[6-(3-chloro-4-trifluoromethyl-phenyl)-pyrimidin-4-yl]-ethane-1,2-diamine, trifluoroacetic acid salt]",66,40,–
"N[C@@H](CNc1cc(-c2cccc(OC(F)(F)F)c2)ncn1)c1ccccc1 [Example 18, (1R)-1-Phenyl-N^2-{6-[3-(trifluoromethoxy)phenyl]pyrimidin-4-yl}ethane-1,2-diamine hydrochloride acid salt]",920,> 10000,–
"N#Cc1cc([C@@H](N)CNc2cc(-c3ccc(C(F)(F)F)c(Cl)c3)ncn2)ccc1F [Example 62, (1R)-5-{1-Amino-2-[6-(3-chloro-4-trifluoromethyl-phenyl)-pyrimidin-4-ylamino]-ethyl}-2-fluoro-benzonitrile]",320,300,–
"N[C@@H](CNc1cc(-c2ccc(C(F)(F)F)c(Cl)c2)ncn1)c1ccc(F)cc1 [Example 27, (1R)—N^2-[6-(3-Chloro-4-trifluoromethyl-phenyl)-pyrimidin-4-yl]-1-(4-fluoro-phenyl)-ethane-1,2-diamine]",33,60,–
"N#Cc1cccc([C@@H](N)CNc2cc(-c3ccc(C(F)(F)F)c(Cl)c3)ncn2)c1 [Example 49, (1R)-3-{1-Amino-2-[6-(3-chloro-4-trifluoromethyl-phenyl)-pyrimidin-4-ylamino]-ethyl}-benzonitrile]",1000,770,–
"O=C(N[C@@H](CNc1cc(-c2ccc(C(F)(F)F)c(Cl)c2)ncn1)c1ccccc1)C(F)(F)F [Example 26, N-[(1R)-2-({6-[3-chloro-4-(trifluoromethyl)phenyl]pyrimidin-4-yl}amino)-1-phenylethyl]-2,2,2-trifluoroacetamide]",1600,> 10000,–
O=C(CCCCCCc1ccccc1)c1ncc(-c2ccccn2)o1 [OL-135],–,–,inhibition of FAAH (FAAH [4]): potent inhibitor; analgesic efficacy/activity in hot plate test (thermal nociception [1]): analgesic activity; analgesic activity in tail emersion test (thermal nociception [5]): analgesic activity
